In patent US20120258929A1, “AGENT THAT MODULATES PHYSIOLOGICAL CONDITION OF PESTS, INVOLVED IN INSECT PEPTIDYL-DIPEPTIDASE A ACTIVITY” (SUMITOMO CHEMICAL COMPANY, LIMITED, priority 2005, published 2012):

Assays:
[1] = target: aphid peptidyl-dipeptidase A (Aphis gossypii, UniProt A0A2K9Y4D7); assay: Inhibition of aphid peptidyl-dipeptidase A activity, in vitro, substrate Abz-Gly-p-nitro-Phe-Pro-OH; format: biochemical, cotton aphid (Aphis gossypii); conditions: for Activity of inhibiting peptidyl-dipeptidase A activity (inhibition degree (%) at 10 μM addition) / inhibition at 10 µM: test compound in DMSO, final concentration 10 μM, relative to DMSO control; for inhibition at 10 µM: read-out: Activity of inhibiting peptidyl-dipeptidase A activity (inhibition degree (%) at 10 μM addition); for IC50: concentrations 100 to 0.03 μM, calculated with XL fit, read-out: Activity of inhibiting peptidyl-dipeptidase A activity IC50, (μM))
Chain of aphid peptidyl-dipeptidase A (A0A2K9Y4D7 entry or part of it): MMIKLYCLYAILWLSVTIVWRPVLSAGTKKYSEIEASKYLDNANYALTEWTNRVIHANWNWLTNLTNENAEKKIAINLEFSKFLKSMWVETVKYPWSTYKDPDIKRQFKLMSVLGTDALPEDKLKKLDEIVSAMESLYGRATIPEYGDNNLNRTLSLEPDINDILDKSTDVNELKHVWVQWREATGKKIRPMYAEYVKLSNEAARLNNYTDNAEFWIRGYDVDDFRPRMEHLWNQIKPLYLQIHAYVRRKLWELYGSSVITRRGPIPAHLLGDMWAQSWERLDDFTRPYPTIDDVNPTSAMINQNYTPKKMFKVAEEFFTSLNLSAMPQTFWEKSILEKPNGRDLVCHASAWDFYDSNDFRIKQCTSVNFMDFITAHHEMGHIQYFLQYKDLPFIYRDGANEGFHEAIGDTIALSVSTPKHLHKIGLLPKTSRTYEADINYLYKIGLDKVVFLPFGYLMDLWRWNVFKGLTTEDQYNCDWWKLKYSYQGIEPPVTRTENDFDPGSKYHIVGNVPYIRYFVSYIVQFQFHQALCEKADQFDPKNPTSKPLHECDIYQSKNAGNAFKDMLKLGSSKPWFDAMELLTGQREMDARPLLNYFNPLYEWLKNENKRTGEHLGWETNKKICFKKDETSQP
Method: Selection of a compound which modulates the activity of a peptidyl-dipeptidase A was performed in a system where the activity of a peptidyl-dipeptidase A which is modulated by adding a test compound to an in vitro reaction system using the aphid peptidyl-dipeptidase A prepared in Example 7 is measured and evaluated.
Measurement of the activity of the aphid peptidyl-dipeptidase A was performed according to a method using Abz-Gly-p-nitro-Phe-Pro-OH (manufactured by Bachem, M-1100) as a substrate, as described in the previously reported article (Carmel et al. (1979) Clinica Chimica Acta, 93, 215-220).
For measuring the activity, the activity of the aphid peptidyl-dipeptidase A was measured when a test compound dissolved in DMSO was contained to a final concentration of 10 μM. In addition, the activity of the aphid peptidyl-dipeptidase A was measured when DMSO was contained in place of a test compound. Then, a ratio (%) of a measured value of the activity of the aphid peptidyl-dipeptidase A when a test compound dissolved in DMSO was contained, relative to a measured value of the activity of aphid peptidyl-dipeptidase A when DMSO was contained in place of the test compound was calculated, and a value obtained by subtracting the calculated value from 100% was adopted as an inhibition degree (%).
The activity of aphid peptidyl-dipeptidase A was measured when a test compound dissolved in DMSO was contained to a final concentration of each concentration of 100 μM, 30 μM, 10 μM, 3 μM, 1 μM, 0.3 μM, 0.1 μM or 0.03 μM.

Aphis gossypil = assay: Pesticidal activity test, artificial feed rearing, surviving aphids after six days; format: in vivo
Method: A sterilized artificial feed having the following composition (Table 3) was prepared. […] Controlling value (%)={1−(Cb×Tai)/(Cai×Tb)}×100 Letters in the equation represent the following meanings.

[2] = test compound dissolved in DMSO to a final concentration of 640 μM, added at 0.5% volume of artificial feed, significant controlling value (e.g. 30% or more) = pesticidal activity
[3] = test compound dissolved in DMSO to a final concentration of 50 ppm, otherwise as Example 9

Compound	Activity of inhibiting peptidyl-dipeptidase A activity (inhibition degree (%) at 10 μM addition) [1]	Determination result of pesticidal activity (Aphis gossypil; [2])	Determination result of pesticidal activity (Aphis gossypil; [3])	inhibition at 10 µM [1]	IC50 [1]	Determination result of pesticidal activity (Aphis gossypil; […], significant controlling value (e.g. 30% or more) = pesticidal activity)
CCN(CC)CCO[C@H]1CC[C@@]2(C)C(=CC[C@@H]3[C@@H]2CC[C@]2(C)C(=O)CC[C@@H]32)C1 [3-beta-[2-(diethylamino)ethoxy]androst-5-en-17-one]	17%	Presence of pesticidal activity				
CC12CCC3c4ccc(O)cc4CCC3C1C/C(=C\c1ccc(OC(F)(F)F)cc1)C2=O (stereo not drawn) [DF15164]			Absence of pesticidal activity			
COC(=O)C(Cc1ccccc1)NC(=O)Nc1n[nH]c(=S)s1 (stereo not drawn) [MMP-2/MMP-3 inhibitor I]		Presence of pesticidal activity		79%		
CCOC(=O)[C@H](CCc1ccccc1)N[C@H]1CCc2ccccc2N(CC(=O)O)C1=O [benazepril]		Presence of pesticidal activity	Presence of pesticidal activity	41%	15.9 µM	
C[C@H](CS)C(=O)N1CCC[C@H]1C(=O)O [captopril]				99%		
CCOC(=O)[C@H](CCc1ccccc1)N[C@@H](C)C(=O)N1CCC[C@H]1C(=O)O [enalapril]		Presence of pesticidal activity		98%		
CCOC(=O)[C@H](CCc1ccccc1)N[C@@H](C)C(=O)N1[C@H](C(=O)O)C[C@@H]2CCC[C@@H]21 [ramipril]		Presence of pesticidal activity		16%		
quinapril	15%		Presence of pesticidal activity		35.8 µM	Presence of pesticidal activity
